Source: patent US20190375778A1, “ADENOSINE DERIVATIVES FOR USE IN THE TREATMENT OF CANCER” (NuCana plc, priority 2016, published 2019)
Like-named read-outs stand apart in the source and are kept apart here.

Legend:
Jurkat = test: CellTiterGlo viability assay, Jurkat; type: cell-based; settings: Homo sapiens, read-out: IC50 Jurkat
Description: (§1) In vitro viability assay were performed to assess the effects of compounds on cell viability in selected cell lines over ˜72 hrs using the CellTiterGlo (CTG, Promega-G7573) assay. The tests were performed in duplicates with treatment of compounds at 9 points, 3.16 folds titration in 96 well plates over ˜72 hrs. The compound starting concentrations were 198 μM. Cell viability assay using CellTiterGlo in 96-well plate were performed. Compound treatment 72 hrs, standard growth conditions, duplicates. Compounds were dissolved to 40 mM with thawed […]. Compounds were serially diluted at 3.16 fold in thawed DMSO, and warmed to 37° C. before being dissolved in media (2 μl+200 μl). After compounds were dissolved in media, media containing compounds were warmed to 37° C. in incubator and then compounds in media were added to cell plates (50 μl+50 μl) in duplicates. The compounds' final concentrations were from […] to 19.9 nM. All compound solubilities were checked and recorded again, then the plates were transferred to CO2 tissue culture incubator immediately and incubated for 3 days. DMSO final concentration is 0.5%.

RPMI-8226 = test: CellTiterGlo viability assay, RPMI-8226; type: cell-based, Human; settings: Homo sapiens, read-out: IC50 RPMI-8226
Summary of the method: (§2)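 Cells were treated for about 72 hrs under standard growth conditions with compounds in a 9-point, 3.16-fold titration run in duplicate, with final concentrations from 198 μM down to 19.9 nM in 0.5% DMSO. Viability was then measured by CellTiterGlo.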

[1] = test system: KG1a leukaemic stem cell compartment (Lin−/CD34+/CD38−/CD123+); test: Leukaemic stem cell compartment in KG1a; type: cell-based
Description: A further comparative analysis of the toxicity of compounds in the KG1a cell line over an extended dose range was carried out, and the relative effect assessed of the compounds on the leukaemic stem cell compartment within the KG1a cell line, across the entire dose range. Thus, experimental tests were performed on certain compounds of the present invention to assess their ability to target cancer stem cells in a leukaemic cell line. The acute myeloid leukaemia (AML) cell line, KG1a, was employed to assess the relative effect of compounds on the stem cell compartment. The KG1a cell line was selected because it manifests a minor stem cell-like compartment with a distinct immunophenotype (Lin^−/CD34^+/CD38^−/CD123^+).
Cells of the KG1a cell line were maintained in RPMI medium (Invitrogen, Paisley, UK) supplemented with 100 units/ml penicillin, 100 μg/ml streptomycin and 20% foetal calf serum. Cells were subsequently aliquoted (10^5 cells/100 μl) into 96-well plates and were incubated at 37° C. in a humidified 5% carbon dioxide atmosphere for 72 hrs in the presence of nucleoside analogues and their respective nucleotide analogues (known as ProTides) at concentrations that were experimentally determined for each series of compounds. In addition, control cultures were carried out to which no drug was added. Cells were subsequently harvested by centrifugation and were analyzed by flow cytometry using the Annexin V assay.
KG1a cells were cultured for 72 hrs in the presence of a wide range of concentrations of each compound assayed. Cells were then harvested and labelled with a cocktail of anti-lineage antibodies (PE-cy7), anti-CD34 (FITC), anti-CD38 (PE) and anti-CD123 (PERCP cy5). The sub-population expressing a leukaemic stem cell (LSC) phenotype were subsequently identified and were expressed as a percentage of all viable cells left in the culture. The percentages of stem cells remaining were then plotted on a dose-response graph and the effects of the compounds were compared with 8-chloroadenosine.
The data obtained in these experiments were evaluated using one way ANOVA. All data was confirmed as Gaussian or a Gaussian approximation using the omnibus K2 test. LD50 values were calculated from the non-linear regression and line of best-fit analysis of the sigmoidal dose-response curves. All statistical analyses were performed using Graphpad Prism 6.0 software (Graphpad Software Inc., San Diego, Calif.).

KG-1 = test: CellTiterGlo viability assay, KG-1; type: cell-based; settings: Homo sapiens, read-out: IC50 KG-1
Summary of the method: as §2

HL-60 = test: CellTiterGlo viability assay, HL-60; type: cell-based; settings: Homo sapiens, read-out: IC50 HL-60
Summary of the method: as §2

THP-1 = test: CellTiterGlo viability assay, THP-1; type: cell-based; settings: Homo sapiens, read-out: IC50 THP-1
Description: as §1

HEL92.1.7 = test: CellTiterGlo viability assay, HEL92.1.7; type: cell-based; settings: Homo sapiens, read-out: IC50 HEL92.1.7
Summary of the method: as §2

NCI-H929 = test: CellTiterGlo viability assay, NCI-H929; type: cell-based; settings: Homo sapiens, read-out: IC50 NCI-H929
Summary of the method: as §2

Z138 = test: CellTiterGlo viability assay, Z138; type: cell-based; settings: Homo sapiens, read-out: IC50 Z138
Description: as §1

HS445 = test: CellTiterGlo viability assay, HS445; type: cell-based; settings: read-out: IC50 HS445
Description: as §1

K562 = test: CellTiterGlo viability assay, K562; type: cell-based; settings: Homo sapiens, read-out: IC50 K562
Summary of the method: as §2

MCF7 = test: CellTiterGlo viability assay, MCF7; type: cell-based; settings: Homo sapiens, read-out: IC50 MCF7
Description: as §1

SMILES | IC50 (Jurkat; 72 h) [µM] | IC50 (RPMI-8226; RPMI-8226, 72 h) [µM] | IC50 (KG-1; KG-1, 72 h) [µM] | IC50 (HL-60; HL-60, 72 h) [µM] | IC50 (THP-1; THP-1, 72 h) [µM] | IC50 (HEL92.1.7; HEL 92.1.7, 72 h) [µM] | IC50 (NCI-H929; NCI-H929, 72 h) [µM] | IC50 (Z138; Z-138, 72 h) [µM] | IC50 (HS445; Hs 445, 72 h) [µM] | IC50 (K562; K562, 72 h) [µM] | IC50 (MCF7; MCF7, 72 h) [µM] | other results
CCCCCOC(=O)[C@H](C)NP(=O)(OC[C@H]1O[C@@H](n2c(Cl)nc3c(N)ncnc32)C(O)C1O)Oc1cccc2ccccc12 (stereo partly drawn) [Compound E, (2S)-Pentyl 2-(((((2R,3S,4R,5R)-5-(6-amino-8-chloro-9H-purin-9-yl)-3,4-dihydroxy-tetrahydrofuran-2-yl)methoxnaphthalene-1-yloxy)phosphoryl)amino)propanoate] | 0.1 to 5 | 0.1 to 5 | 0.1 to 5 | 0.1 to 5 | 0.1 to 5 | 0.1 to 5 | 0.1 to 5 | 0.1 to 5 | 15 to 100 | 0.1 to 5 | 0.1 to 5 | KG-1a (CD34+/CD38−/CD123+) % compartment ([1]; LSC as percentage of viable cells left, 72 hrs): 3.5%
Nc1ncnc2c1nc(Cl)n2[C@@H]1O[C@H](COP(=O)(NCC(=O)OCc2ccccc2)NCC(=O)OCc2ccccc2)C(O)C1O (some centres unmarked) [Compound AC, 8-Chloroadenosine 5′-O-bis(benzyloxy-glycin-N-yl) phosphate] |  |  |  |  |  |  |  |  |  |  |  | IC50 (Jurkat; CellTiterGlo, 72 hrs): 0.1 to 5 µM; IC50 (RPMI-8226; RPMI-8226, CellTiterGlo, 72 hrs): 0.1 to 5 µM; targeting of leukaemic/cancer stem cells in words ([1]; KG1a, compared to 8-chloroadenosine (FIG. 2, FIG. 8)): no evidence of a capacity to target cancer stem cells; IC50 (KG-1; KG-1, CellTiterGlo, 72 hrs): 0.1 to 5 µM; IC50 (HL-60; HL-60, CellTiterGlo, 72 hrs): 0.1 to 5 µM; IC50 (THP-1; THP-1, CellTiterGlo, 72 hrs): 0.1 to 5 µM; IC50 (HEL92.1.7; HEL 92.1.7, CellTiterGlo, 72 hrs): 0.1 to 5 µM; IC50 (NCI-H929; NCI-H929, CellTiterGlo, 72 hrs): 0.1 to 5 µM; IC50 (Z138; Z-138, CellTiterGlo, 72 hrs): 0.1 to 5 µM; IC50 (HS445; Hs 445, CellTiterGlo, 72 hrs): 5 to 15 µM; IC50 (K562; K562, CellTiterGlo, 72 hrs): 0.1 to 5 µM; IC50 (MCF7; MCF7, CellTiterGlo, 72 hrs): 0.1 to 5 µM
CC(C)C[C@H](NP(=O)(OC[C@H]1O[C@@H](n2c(Cl)nc3c(N)ncnc32)C(O)C1O)Oc1ccccc1)C(=O)OCc1ccccc1 (stereo partly drawn) [V, 5′-([(Benzyloxy-L-leucin-N-yl)-phenyl]-phosphatyl) 8-chloroadenosine] | 5 to 15 | 0.1 to 5 | 5 to 15 | 5 to 15 | 0.1 to 5 | 0.1 to 5 | 0.1 to 5 | 0.1 to 5 | 15 to 100 | 0.1 to 5 | 0.1 to 5 | 
